Assays:
Format in all cases: cell-based
[1] = system: Human Pancreatic Carcinoma Cell Line (BXPC-3); assay: Tumor cell proliferation assay (MTT), BXPC-3; conditions: for inhibition at 10 µM: concentration of 10^−5 mol/L, preliminary screening, 72 hours, read-out: Inhibition rate % BXPC-3; for IC50: secondary screening, 48 hours
Excerpt: (§1) The assay used generally is the blue tetrazolium bromide (MTT) method. […] The amount of formazan can be detected by the microplate reader through the absorption value at 570 nm. The amount of formazan product generated is proportional to the number of living cells in the sample, so the OD value may reflect the number of living cells and the ability of a test drug to inhibit or kill cells. The MTT assay may be used in determining the ability of different compounds of the present invention to inhibit one or more cancer cells proliferation. Similar assays can be designed along the same lines for any cancer cell using techniques well known in the art.
(§2) The assay used generally is the blue tetrazolium bromide (MTT) method. […] Intracellular purple formazan salt crystals can be solved in DMSO and the absorption value at 570 nm is detected by the microplate reader, then the number of living cells can be detected indirectly. So MTT assay may be used to determine the ability of a compound of the present invention to inhibit cell proliferation. Similar assays can be designed along the same lines for any cancer cell using techniques well known in the art.
2.2.6 Human Pancreatic Carcinoma Cell Line (BXPC-3);
(§3) The cells of 2.2.6, 2.2.7 cultured in RPMI 1640 medium containing 12% fetal bovine serum in the condition of 37° C., 5% CO2.
(§4) 2.3.1 Cell seeding: Trypsinize the cell by 0.05% trypsin-EDTA and add RPMI 1640 medium (DMEM or 5A) containing 12% calf serum. Count the number, then dilute to 1.67×10^4/ml. Add 180 ul/well to the 96 well plate (3000 cells/well).
(§5) 2.3.2 Culture: cells are incubated for 24 hours at 37° C. under 5% CO2.
(§6) 2.3.3 Preliminary screening: The compounds are firstly diluted to 0.1 mol/L with DMSO, and then diluted to three concentrations of 10^−5 mol/L, 10^−6 mol/L and 10^−7 mol/L. Add 20 ul test compounds to the 96 well plate and incubate for 72 hours. Each group has three parallel wells and all experiments repeat three times. Each inhibition ratio is calculated, then an average value of three times is taken as the measured value. 2.3.4 Staining 2.3.4.1 Attached cell: add 20 ul/well MTT to the 96-well plates; incubate for 4 hours in the incubator. Pour out the culture medium in the well and add 100 ul/well DMSO. Shake the plate for 5 min. 2.3.4.2 Suspension cell: add 20 ul/well MTT to the 96-well plates; incubate for 4 hours in the incubator. Add 50 ul/well 20% SDS and incubate for overnight in the incubator. 2.3.5 Reading the plates: read the absorbance A570-A630 with the Infinite M200 microtiter plate reader. Calculate the inhibition ratio of the test compounds. […] Dilute these compounds to ten concentrations: 10^−5 mol/L, 0.5×10^−5 mol/L, 10^−6 mol/L, 0.8×10^−6 mol/L, 0.6×10^−6 mol/L, 0.4×10^−6 mol/L, 0.2×10^−6 mol/L, 10^−7 mol/L, 0.8×10^−7 mol/L and 0.4×10^−7 mol/L. Add 20 ul test compound solution to the 96 well plate and incubate for 48 hours. Each group has three parallel wells and all experiments repeat for three times. Read the plates and calculate the inhibition ratio according to the preliminary screening method. 2.3.7 Calculate the Inhibition Ratio of Cell Proliferation and the IC50
(§7) According to the inhibition ratio of cell proliferation at the different concentrations of the compound, inhibition ratio of 50% of the test compound is calculated through the logarithm of the concentration of the compound with the Logit [I] linear regression, and an average value of three times is taken as the measured value of a sample.

[2] = system: Human Gastric Cancer Cell Line (BGC); assay: Tumor cell proliferation assay (MTT), BGC; conditions: for inhibition at 10 µM: concentration of 10^−5 mol/L, preliminary screening, 72 hours, read-out: Inhibition rate % BGC; for IC50: secondary screening, 48 hours
Excerpt: as §1, §2
2.2.1 Human Gastric Cancer Cell Line (BGC)
(§8) The cells of the 2.2.1, 2.2.2, 2.2.3, 2.2.4, 2.2.5 cultured with RPMI 1640 containing 12% calf serum in the condition of 37° C., 5% CO2.
as §4, §5
(§9) 2.3.3 Preliminary screening: The compounds are firstly diluted to 0.1 mol/L with DMSO, and then diluted to three concentrations of 10^−5 mol/L, 10^−6 mol/L and 10^−7 mol/L. Add 20 ul test compounds to the 96 well plate and incubate for 72 hours. Each group has three parallel wells and all experiments repeat three times. Each inhibition ratio is calculated, then an average value of three times is taken as the measured value. 2.3.4 Staining 2.3.4.1 Attached cell: add 20 ul/well MTT to the 96-well plates; incubate for 4 hours in the incubator. Pour out the culture medium in the well and add 100 ul/well DMSO. Shake the plate for 5 min. 2.3.4.2 Suspension cell: add 20 ul/well MTT to the 96-well plates; incubate for 4 hours in the incubator. Add 50 ul/well 20% SDS and incubate for overnight in the incubator. 2.3.5 Reading the plates: read the absorbance A570-A630 with the Infinite M200 microtiter plate reader. Calculate the inhibition ratio of the test compounds. 2.3.6 Secondary screening: the compounds whose inhibition ratio is greater than 50% at the concentrations of 10^−5 mol/L in the preliminary screening will be picked out for Secondary screening. Dilute these compounds to ten concentrations: 10^−5 mol/L, 0.5×10^−5 mol/L, 10^−6 mol/L, 0.8×10^−6 mol/L, 0.6×10^−6 mol/L, 0.4×10^−6 mol/L, 0.2×10^−6 mol/L, 10^−7 mol/L, 0.8×10^−7 mol/L and 0.4×10^−7 mol/L. Add 20 ul test compound solution to the 96 well plate and incubate for 48 hours. Each group has three parallel wells and all experiments repeat for three times. Read the plates and calculate the inhibition ratio according to the preliminary screening method. 2.3.7 Calculate the Inhibition Ratio of Cell Proliferation and the IC50
as §7

[3] = system: Human Colon Cancer Cell Line (HT-29); assay: Tumor cell proliferation assay (MTT), HT29; conditions: for inhibition at 10 µM: concentration of 10^−5 mol/L, preliminary screening, 72 hours, read-out: Inhibition rate % HT29; for IC50: secondary screening, 48 hours
Excerpt: as §1, §2
2.2.11 Human Colon Cancer Cell Line (HT-29);
(§10) The cells of 2.2.11, 2.2.12, 2.2.13 were cultured in MC COYS 5-A medium containing 12% fetal bovine serum in the condition of 37° C., 5% CO2.
as §4, §5, §6, §7

[4] = system: Human Pancreatic Carcinoma Cells (PANC-1); assay: Tumor cell proliferation assay (MTT), PANC-1; conditions: for inhibition at 10 µM: concentration of 10^−5 mol/L, preliminary screening, 72 hours, read-out: Inhibition rate % PANC-1; for IC50: secondary screening, 48 hours
Excerpt: as §1, §2
2.2.4 Human Pancreatic Carcinoma Cells (PANC-1)
as §8, §4, §5, §9, §7

[5] = system: Human Ovarian Cancer Cell Line (SK-OV-3); assay: Tumor cell proliferation assay (MTT), SK-OV-3; conditions: for inhibition at 10 µM: concentration of 10^−5 mol/L, preliminary screening, 72 hours, read-out: Inhibition rate % SK-OV-3; for IC50: secondary screening, 48 hours
Excerpt: as §1, §2
2.2.13 Human Ovarian Cancer Cell Line (SK-OV-3).
as §10, §4, §5, §9, §7

[6] = system: Human Small Cell Lung Cancer Cell Line (NCI-H446); assay: Tumor cell proliferation assay (MTT), NCI-H446; conditions: for inhibition at 10 µM: concentration of 10^−5 mol/L, preliminary screening, 72 hours, read-out: Inhibition rate % NCI-H446; for IC50: secondary screening, 48 hours
Excerpt: as §1, §2
2.2.5 Human Small Cell Lung Cancer Cell Line (NCI-H446)
as §8, §4, §5, §9, §7

[7] = system: Human Hepatocellular Carcinoma Cell Line (HEPG2); assay: Tumor cell proliferation assay (MTT), HEPG2; conditions: concentration of 10^−5 mol/L, preliminary screening, 72 hours, read-out: Inhibition rate % HEPG2
Excerpt: as §1, §2
2.2.8 Human Hepatocellular Carcinoma Cell Line (HEPG2);
The cells of 2.2.8, 2.2.9 cultured in DMEM/High glucose medium containing 12% calf serum in the condition of 37° C., 5% CO2.
as §4, §5, §9, §7

[8] = system: Human Bladder Cancer Cell Line (T24); assay: Tumor cell proliferation assay (MTT), T24; conditions: concentration of 10^−5 mol/L, preliminary screening, 72 hours, read-out: Inhibition rate % T24
Excerpt: as §1, §2
2.2.7 Human Bladder Cancer Cell Line (T24);
as §3, §4, §5, §9, §7

[9] = system: Human Non-Small Cell Lung Cancer Cell Line (A549); assay: Tumor cell proliferation assay (MTT), A549; conditions: for inhibition at 10 µM: concentration of 10^−5 mol/L, preliminary screening, 72 hours, read-out: Inhibition rate % A549; for IC50: secondary screening, 48 hours
Excerpt: as §1, §2
2.2.2 Human Non-Small Cell Lung Cancer Cell Line (A549)
as §8, §4, §5, §9, §7

IC50 [1] [µM] | IC50 [2] [µM] | IC50 [3] [µM] | IC50 [6] [µM] | IC50 [9] [µM] | IC50 [4] [µM] | IC50 [5] [µM] | SMILES | inhibition at 10 µM [1] [%] | inhibition at 10 µM [2] [%] | inhibition at 10 µM [3] [%] | inhibition at 10 µM [4] [%] | inhibition at 10 µM [5] [%] | inhibition at 10 µM [6] [%] | inhibition at 10 µM [7] [%] | inhibition at 10 µM [8] [%] | inhibition at 10 µM [9] [%]
7.68 | 4.26 | 6.9 | 9.42 | – | – | – | Cc1[nH]c2c(c1C(=O)NCC(O)CN1CCOCC1)CCC/C2=C1/C(=O)Nc2ccccc21 (stereo not shown) [I-67, N-(2-hydroxy-3-morpholinopropyl)-2-methyl-7-[1,2-dihydro-2-oxo-3H-indol-(Z)-3-ylidene]-4,5,6,7-tetrahydro-1H-indole-3-carboxamide] | 51.7 | 67.6 | 51.9 | 31.5 | 8.34 | 49.3 | – | – | –
– | – | – | – | – | – | – | Cc1[nH]c2c(c1C(=O)N(C)C)CCC/C2=C1/C(=O)Nc2ccccc21 [I-15, N,N,2-trimethyl-7-[1,2-dihydro-2-oxo-3H-indol-(Z)-3-ylidene]-4,5,6,7-tetrahydro-1H-indole-3-carboxamide] | – | – | – | – | – | – | 61.1 | 74.8 | –
1.89 | 2.92 | 4.36 | 2.98 | 3.73 | 1.81 | 2.17 | Cc1[nH]c2c(c1C(=O)NCC(O)CN1CCCC1)CCC/C2=C1/C(=O)Nc2ccc(Cl)cc21 (stereo not shown) [I-72, N-(2-hydroxy-3-(pyrrolidin-1-yl)propyl)-2-methyl-7-[1,2-dihydro-5-chloro-2-oxo-3H-indol-(Z)-3-ylidene]-4,5,6,7-tetrahydro-1H-indole-3-carboxamide] | 99.3 | 85.9 | 97.4 | 98.1 | 95.1 | 97.9 | – | – | 81.2
0.84 | 2.28 | 2.32 | 3.26 | 2.84 | 3.99 | 1.51 | Cc1ccc2c(c1)/C(=C1\CCCc3c1[nH]c(C)c3C(=O)NCC(O)CN(C)C1CCCCC1)C(=O)N2 (stereo not shown) [I-79, N-[3-(cyclohexyl(methyl)amino)-2-hydroxypropyl]-2-methyl-7-[1,2-dihydro-5-methyl-2-oxo-3H-indol-(Z)-3-ylidene]-4,5,6,7-tetrahydro-1H-indole-3-carboxamide] | 99 | 81 | 98.2 | 96.8 | 96 | – | – | – | 63.3
– | – | – | – | – | – | – | Cc1[nH]c2c(c1C(=O)NCC(O)CN1CCOCC1)CCC/C2=C1/C(=O)Nc2ccc(Cl)cc21 (stereo not shown) [I-69, N-(2-hydroxy-3-morpholinopropyl)-2-methyl-7-[1,2-dihydro-5-chloro-2-oxo-3H-indol-(Z)-3-ylidene]-4,5,6,7-tetrahydro-1H-indole-3-carboxamide] | 39.9 | 30 | 34.9 | 22.4 | 2.8 | 25.3 | – | – | 18.9
– | 12.2 | – | – | – | – | – | Cc1[nH]c2c(c1C(=O)NCC(O)CN1CCN(C)CC1)CCC/C2=C1/C(=O)Nc2ccc(Cl)cc21 (stereo not shown) [I-78, N-[2-hydroxy-3-(4-methylpiperazin-1-yl)propyl]-2-methyl-7-[1,2-dihydro-5-chloro-2-oxo-3H-indol-(Z)-3-ylidene]-4,5,6,7-tetrahydro-1H-indole-3-carboxamide] | 31.7 | 48.5 | 24.2 | 21.8 | 20.2 | 8.07 | – | – | 29.9
2.24 | 3.63 | 1.38 | 7.09 | 1.36 | 3.4 | 3.03 | Cc1[nH]c2c(c1C(=O)NCC(O)CN1CCN(C)CC1)CCC/C2=C1/C(=O)Nc2ccccc21 (stereo not shown) [I-76, N-[2-hydroxy-3-(4-methylpiperazin-1-yl)propyl]-2-methyl-7-[1,2-dihydro-2-oxo-3H-indol-(Z)-3-ylidene]-4,5,6,7-tetrahydro-1H-indole-3-carboxamide] | 97.5 | 74.2 | 92.1 | 80.1 | 90.3 | 64.6 | – | – | 64.5
– | – | – | – | – | – | – | Cc1[nH]c2c(c1C(=O)N1CCOCC1)CCC/C2=C1/C(=O)Nc2ccc(Cl)cc21 [I-11, 2-methyl-3-(morpholine-4-carbonyl)-7-[1,2-dihydro-5-chloro-2-oxo-3H-indol-(Z)-3-ylidene]-4,5,6,7-tetrahydro-1H-indole] | – | – | – | – | – | – | 2.92 | 0 | –

Reference: patent publication US8084621B2, “3-Pyrrolo[b]cyclohexylene-2-dihydroindolinone derivatives and uses thereof” (Jiangsu Simcere Pharmaceutical R&D Co. Ltd., priority 2006, dated 2011)
